Experiments:
Experiment in all cases: relative viability (nuclei count vs DMSO), 5 days (fraction); higher = more cells survive
Motesanib + Bortezomib = compound: CC1(C)CNc2cc(NC(=O)c3cccnc3NCc3ccncc3)ccc21 [Motesanib] + CC(C)C[C@H](NC(=O)[C@H](Cc1ccccc1)NC(=O)c1cnccn1)B(O)O [Bortezomib] (partner 0.002 µM)
In short: (§1)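 Values are medians from duplicate plates. Each reflects relative viability, defined as the nuclei count of treated wells over that of vehicle wells. Lung cancer cell lines in 1536-well plates were pin-tool dosed one day after seeding with one drug alone or with a fixed anchor-drug dose plus five library-drug doses (not always all listed) in √10 steps, then fixed, stained and imaged at 4× after 5 days.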

[1] = compound: C[C@@]1(C(=O)Nc2ccc(F)nc2)CCCN1c1nc(Nc2cc(C3CC3)n[nH]2)c2cccn2n1 + CS(=O)(=O)CCNCc1ccc(-c2ccc3ncnc(Nc4ccc(OCc5cccc(F)c5)c(Cl)c4)c3c2)o1 [Lapatinib] (partner 2 µM)
In short: as §1

Motesanib + Luminespib = compound: CC1(C)CNc2cc(NC(=O)c3cccnc3NCc3ccncc3)ccc21 [Motesanib] + CCNC(=O)c1noc(-c2cc(C(C)C)c(O)cc2O)c1-c1ccc(CN2CCOCC2)cc1 [Luminespib] (partner 0.01 µM)
In short: as §1

Motesanib + Dasatinib = compound: CC1(C)CNc2cc(NC(=O)c3cccnc3NCc3ccncc3)ccc21 [Motesanib] + Cc1nc(Nc2ncc(C(=O)Nc3c(C)cccc3Cl)s2)cc(N2CCN(CCO)CC2)n1 [Dasatinib] (partner 0.075 µM)
In short: as §1

UMC-11
relative viability (Motesanib + Bortezomib; first compound 0.01 µM): 0.648 | relative viability (Motesanib + Bortezomib; first compound 0.03162 µM): 0.767 | relative viability (Motesanib + Bortezomib; first compound 0.1 µM): 0.64 | relative viability (Motesanib + Bortezomib; first compound 0.3162 µM): 0.683 | relative viability (Motesanib + Bortezomib; first compound 1 µM): 0.951 | relative viability ([1]; first compound 0.04 µM): 1.02 | relative viability ([1]; first compound 0.1265 µM): 1.02 | relative viability ([1]; first compound 0.4 µM): 0.826 | relative viability ([1]; first compound 1.265 µM): 0.805 | relative viability (Motesanib + Luminespib; first compound 0.01 µM): 0.987 | relative viability (Motesanib + Luminespib; first compound 0.03162 µM): 1.07 | relative viability (Motesanib + Luminespib; first compound 0.1 µM): 0.927 | relative viability (Motesanib + Luminespib; first compound 0.3162 µM): 1.12 | relative viability (Motesanib + Luminespib; first compound 1 µM): 1.17 | relative viability (Motesanib + Dasatinib; first compound 0.01 µM): 0.435 | relative viability (Motesanib + Dasatinib; first compound 0.03162 µM): 0.447 | relative viability (Motesanib + Dasatinib; first compound 0.1 µM): 0.489 | relative viability (Motesanib + Dasatinib; first compound 0.3162 µM): 0.477 | relative viability (Motesanib + Dasatinib; first compound 1 µM): 0.471

Reference: the supplement of paper PMC10307832
